Data published in patent US6011000A, “Compositions for the treatment of blood disorders” (priority 1995, dated 2000).

Experiments:
[1] = tested on: γ-globin mRNA; conditions: patients with globin disorders; cited from earlier work
[2] = tested on: proximal promoter of the gamma globin gene (K562 cells); assay: Gamma globin promoter-neomycin transfection (61 bp proximal promoter), G418-resistant colonies; type: cell-based, human
Experimental: Gamma globin promoter-neomycin transfection experiments were performed to determine if compounds act by inducing an increase in activity from the proximal promoter of the gamma globin gene. Constructs containing 61 bp of the proximal gamma globin promoter were linked to the reporter gene for neomycin phosphotransferase (NEO) and transfected into permissive K562 cells by electroporation. After 18 hours, transfected cells were passed at 10^3 cells per well into RPMI media containing G418 (neomycin), which kills all mammalian cells unless the gene for NEO is expressed. Phenoxyacetic acid and thiophenoxyacetic acid were added to some of the cells plated into the RPMI/G418 media at concentrations of 1 mM. Cultures were incubated for 8 weeks with media changes performed as needed. Colonies which survived and grew in the presence of G418 were scored and the number of such colonies was compared to those generated when the cells were plated into G418 media without the test compounds. […] There was a greater than 6-fold (>600%) increase in proportions of colonies surviving the presence of phenoxyacetic acid (6/24 wells) and a three-fold (300%) increase in survival in the presence of thiophenoxyacetic acid (3/24 wells).

[3] = Homo sapiens, K562, 1344 h, read-out: increase in proportions of colonies surviving

Row | SMILES | levels of γ-globin mRNA [1] | colonies surviving ([2]; 1 mM, 8 weeks in G418, none of 24 wells without compound) | activation at 1000 µM [2, 3] | fold induction at 1000 µM [2, 3]
1 | CCCC(=O)O [AB, arginine butyrate] | increase in response to butyrate treatment | – | – | –
2 | O=C(O)COc1ccccc1 [PAA, Phenoxyacetic acid] | – | 6/24 | > 600% | > 6
